Patent publication US20170049781A1, “HSP90 INHIBITOR COMBINATIONS” (Novartis AG, priority 2008, published 2017)

Legend:
Format in all cases: cell-based, human
[1] = tested on: phosphorylated AKT (P-AKT(S473) and P-AKT(T308)); experiment: Western blot of AKT phosphorylation in BT474 breast tumor cells
Experimental: (§1) Two cancer derived cell lines are used (BT474 and MDA-MB-231). These are human breast carcinoma cell lines. The cell lines are commercially available from American Type Culture Collection (ATCC). BT474 cells are maintained in Hybri-Care medium (ATCC) supplemented with 10% v/v fetal calf serum and 2 mM L-glutamine. MDB-MB-231 cells are grown in RPMI 1640 medium (Animed, Allschwil, Switzerland) supplemented with 10% v/v fetal calf serum and 2 mM L-glutamine. The media are supplemented with 100 microgramm/ml penicillin/streptomycin and cells are maintained at 37° C. in 5% CO2.
(§2) After division and medium change, cells from stock culture are seeded at a density of 3.3×10^4 cells/cm^2 (BT474) and 1.2×10^4 cells/cm^2 (MDB-MB-231) on cell plates and incubated for 48 hours at 37° C. and 5% CO2 prior to the treatment with DMSO vehicle, 20 nM everolimus (RAD001) and/or various concentrations of AUY922 (compound 1) for 24 hours. To prepare cell lysates culture plates are washed once with ice-cold phosphor buffered saline (PBS) containing 1 mM phenylmethylsulfonyl fluoride (PMSF) and once with ice-cold extraction buffer (50 mM Hepes pH 7.4, 150 mM NaCl, 25 mM beta-glycerophosphate, 25 mM NaF, 5 mM EGTA, 1 mM EDTA, 15 mM PPi, 2 mM sodium orthovanadate, 10 mM sodium molybdate, leupeptin (10 microgramm/ml), aprotinin (10 microgramm/ml), 1 mM DTT and 1 mM PMSF. Cells are extracted in the same buffer, containing 1% NP-40. The extracts are homogenized, cleared by centrifugation, aliquoted and frozen at −80° C. Protein concentration is determined with the BCA Protein Assay (Pierce, Rockford, Ill., USA).
(§3) Twenty micrograms of cell extracts are resolved electrophoretically on 12% denaturing sodium dodecyl sulfate polyacrylamide gels (SDS-PAGE) and transferred to polyvinylidene difluoride filters by wet-blotting (1 hour at 250 mA) and probed overnight at 4° C. with the following primary antibodies:
(§4) anti-phospho-Akt (Ser473) (clone 14-05; 1:2000) obtained from DAKO (Glostrup, Denmark) and diluted in PBS, 0.5% v/v Tween. […]

[2] = tested on: phosphorylated AKT (P-AKT(S473), T308); experiment: Western blot of AKT phosphorylation in MDA-MB-231 breast tumor cells; conditions: MDA-MB-231 cells
Experimental: as §1, §2, §3, §4

AKT = experiment: Western blot of AKT levels in MDA-MB-231 breast tumor cells; conditions: MDA-MB-231 cells, 100 nM Compound I
Experimental: as §1
After division and medium change, cells from stock culture are seeded at a density of 3.3×10^4 cells/cm^2 (BT474) and 1.2×10^4 cells/cm^2 (MDB-MB-231) on cell plates and incubated for 48 hours at 37° C. and 5% CO2 prior to the treatment with DMSO vehicle, 20 nM everolimus (RAD001) and/or various concentrations of AUY922 (compound 1) for 24 hours. […]

Structure (SMILES)	AKT phosphorylation (P-AKT(S473) and P-AKT(T308)) on addition of RAD001 in the presence of compound I ([1]; BT474 cells, 20 nM RAD001 in the presence of 50-100 nM compound I (combination))	levels of phosphorylated AKT (P-AKT(S473) and P-AKT(T308)) compared to an untreated control ([1]; BT-474 cells, 20 nM RAD001, 24 hours)	levels of phosphorylated AKT (P-AKT(S473)) compared to an untreated control ([2]; 20 nM RAD001, 24 hours)	phosphorylation of AKT at amino acid residue T308 on addition of RAD001 in the presence of compound I ([2]; 20 nM RAD001 in the presence of 50-100 nM compound I (combination))	AKT phosphorylation (P-AKT(S473) and P-AKT(T308)) ([1]; BT474 cells, 50-100 nM compound I, 24 hours)	AKT phosphorylation (P-AKT(S473)) ([2]; 50-100 nM compound I, 24 hours)	AKT levels (AKT)
CO[C@H]1C[C@@H]2CC[C@@H](C)[C@@](O)(O2)C(=O)C(=O)N2CCCC[C@H]2C(=O)O[C@H]([C@H](C)C[C@@H]2CC[C@@H](OCCO)[C@H](OC)C2)CC(=O)[C@H](C)/C=C(\C)[C@@H](O)[C@@H](OC)C(=O)[C@H](C)C[C@H](C)/C=C/C=C/C=C/1C [RAD001, 40-O-(2-hydroxyethyl)-rapamycin]	did not cause increase in AKT phosphorylation	increased levels of phosphorylated AKT	increased levels of phosphorylated AKT	did not cause increased phosphorylation of AKT	–	–	–
COc1cccc(-c2ccccc2[C@H]2Cc3nc(N)nc(C)c3C(=O)N2)n1 [compound I, (R)-2-amino-7-[2-(6-methoxy-pyridin-2-yl)-phenyl]-4-methyl-7,8-dihydro-6H-pyrido[4,3-d]pyrimidin-5-one]	–	–	–	–	diminished	diminished	slightly decreased
